Legend:
[1] = molecular target: T1, squalene synthesizing enzyme (Rattus norvegicus, UniProt Q02769); assay: Measurement of squalene synthesizing enzyme inhibitive activity by using a rat liver microsome; assay type: biochemical; conditions: [3H]-farnesylpyrophosphoric acid
T1 construct: The liver was excised from a male Spraugue-Dawly rat; from tissue; host or cells: liver microsome fraction of male Sprague-Dawley rat (8 to 9 weeks)
T1 sequence (Q02769 1-416): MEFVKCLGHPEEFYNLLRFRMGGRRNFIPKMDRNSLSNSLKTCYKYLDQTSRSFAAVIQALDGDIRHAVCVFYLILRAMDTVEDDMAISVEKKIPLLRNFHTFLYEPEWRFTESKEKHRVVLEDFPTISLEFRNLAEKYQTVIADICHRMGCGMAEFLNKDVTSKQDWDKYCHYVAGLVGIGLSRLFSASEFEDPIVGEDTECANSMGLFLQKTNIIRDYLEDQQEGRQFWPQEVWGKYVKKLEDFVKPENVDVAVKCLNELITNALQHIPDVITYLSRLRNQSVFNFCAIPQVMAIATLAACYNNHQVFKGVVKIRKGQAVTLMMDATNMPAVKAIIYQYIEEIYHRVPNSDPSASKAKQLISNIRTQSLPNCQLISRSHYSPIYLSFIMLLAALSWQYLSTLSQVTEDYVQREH
Protocol: Measurement of Squalene Synthesizing Enzyme Inhibitive Activity by Using a Rat Liver Microsome
(I) The reaction was run on a scale of 500 μ1. 200 µl of a solution containing 125 mM tris-hydrochloric acid (pH: 7.3), 2.5 mM magnesium chloride, 5 mM potassium fluoride and 10 mM reduction type nicotinamidoadenine dinucleotide phosphoric acid, 100 µl of the specimen solution with a 5-fold concentration, 100 µl of distilled water and 50 µl of 0.4 to 1 mg/ml rat liver microsome prepared by the following method were mixed.
(II) The above mixture was pre-incubated at 37° C. for 10 minutes and thereafter, 50 µl of 100 μM [^3H]-farnesylpyrophosphoric acid (30 mCi/mmol, NEN) was added to the mixture to start a reaction. The reaction was continued at 37° C. for 10 minutes. 1 ml of ethanol was added to the resulting mixture to terminate the reaction and then 1 ml of distilled water and 3 ml of petroleum ether were added to the reaction solution, which was then shaken for 30 minutes. The water phase was separated from the oil phase, the water phase was frozen at −70° C. in dry ice/methanol and the radiative activity of the organic phase was measured using a liquid scintillator. Or the organic phase was evaporated to dryness using nitrogen gas and the residue was dissolved as a marker in 25 µl of chloroform containing squalene, farnesol and cholesterol. This sample was spotted on a TCL plate (Merck) and developed using heptane for 15 to 20 minutes. A band of squalene was cut from the plate to measure the radiative activity by using a liquid scintillation counter. The data was expressed by a concentration (IC50) at which 50% of the radiative activity of a control group was inhibited.
Method of the Preparation of a Rat Liver Microsome
The following operations were all carried out on ice and the centrifugation was performed at 4° C. The liver was excised from a male Spraugue-Dawly rat (hereinafter referred to as SD rat) (8 to 9 weeks age) and perfused with 1.15% potassium chloride to remove the blood. Then, the liver was minced using a forceps and the minced liver was homogenized using a Teflon homogenizer. The resulting sample was centrifuged at 16000×g twice for 15 minutes. The supernatant was further centrifuged at 105000×g for 60 minutes. The obtained deposit was determined as a microsome fraction, which was then suspended in a 25 mM tris-hydrochloric acid solution. The concentration of protein was measured quantitatively by a Bradford method and the concentration of protein was adjusted to 20 mg/ml by using the same solution. The resulting solution was stored at […].

cholesterol biosynthesis = assay: Measurement of cholesterol biosynthesis inhibitive activity in a rat; assay type: in vivo; conditions: male SD rat, oral, inhibition rate to control group; for inhibition in vivo at 3 mg/kg / Cholesterol biosynthesis inhibitive activity inhibition (%): dose 3 mg/kg
Protocol: Measurement of Cholesterol Biosynthesis Inhibitive Activity in a Rat
(I) An SPF grade male SD rat (4 weeks age, SLC) was bred for more than one week in a day-night-reversal room and subjected to an experiment made in the daytime. The compound dissolved in a 2% Tween 80 solution was administered (5 ml/kg) to the rat using an oral sonde. After one hour, a [1-^14C]Acetic acid, sodium salt (1.67-2.22 GBq/mmol, 37 MBq/ml, NEN) prepared by diluting to 1.85 MBq/ml by using physiological saline was intraabdominally administered (300 μ1/animal). After one hour, the rat was anesthetized by diethyl ether to carry out exsanguination from the aorta abdominalis. The collected blood was centrifuged at 3000 rpm for 10 minutes to prepare blood plasma.
(II) 1 ml of 4N KOH and 1 ml of ethanol were added to 2 ml of the blood plasma, which was then incubated at 65° C. for one hour and there after, 3 ml of petroleum ether was added. The plasma was shaken for 30 minutes. After the water phase was separated from the organic phase by centrifugation, it was frozen at −80° C. and the radiative activity of the organic phase was measured using a liquid scintillation counter. Or the organic phase was evaporated to dryness using nitrogen gas and the residue was dissolved as a marker in 25 µl of chloroform containing squalene, farnesol and cholesterol. This sample was applied to a TCL plate (Merck) and developed using toluene and isopropyl ether (1:1) for 15 to 20 minutes. A band of cholesterol was cut from the plate to measure the radiative activity by using a liquid scintillation counter. The cholesterol biosynthesis inhibition activity was expressed by an inhibition rate (%) to a control group.

Compound | IC50 [1] | inhibition in vivo at 3 mg/kg (cholesterol biosynthesis; 2 h) | also measured
OC1(C#Cc2cnc(-c3ccccn3)cc2Cc2ccccc2)CN2CCC1CC2 (stereo not drawn) [Example 2, 3-[4-Benzyl-2-(2-pyridyl)-5-pyridyl]ethynyl-3-quinuclidinol] | 20 nM | – | –
COC1CCN(c2ccc(C#CC3(O)CN4CCC3CC4)c(Cc3ccccc3)n2)CC1 (stereo not drawn) [Example 9, 3-[2-Benzyl-6-(4-methoxypiperidino)-3-pyridyl)ethynyl-3-quinuclidinol] | 34 nM | – | –
CO[C@@H]1CN(c2ccc(C#C[C@@]3(O)CN4CCC3CC4)c(Cc3ccccc3)n2)C[C@H]1O [Example 10, (3R)-3-[2-Benzyl-6-[(3R,4R)-3-hydroxy-4-methoxypyrrolidine-1-yl]-3-pyridyl)ethynyl-3-quinuclidinol] | 2 nM | – | –
OC1(C#Cc2cnc(-c3ccc4c(c3)OCO4)nc2Cc2ccccc2)CN2CCC1CC2 (stereo not drawn) [Example 19, 3-[4-Benzyl-2-(3,4-methylenedioxyphenyl)-5-pyrimidyl]ethynyl-3-quinuclidinol] | 10 nM | – | –
COCCCOc1ccc(C#CC2(O)CN3CCC2CC3)c(Cc2ccccc2)n1 (stereo not drawn) [Example 13, 3-[2-Benzyl-6-(3-methoxypropyloxy)-3-pyridyl]ethynyl-3-quinuclidinol] | – | 87% | –
3-[4-Benzyl-2-(3-pyridyl)-5-pyridyl]ethynyl-3-quinuclidinol [Example 18] | 25 nM | – | –
CO[C@@H]1CCN(c2ccc(C#C[C@@]3(O)CN4CCC3CC4)c(Cc3ccccc3)n2)C1=O [Example 144, (3R)-3-[2-Benzyl-6-[(3R)-3-methoxy-2-pyrrolidinone-1-yl]-3-pyridyl]ethynyl-3-quinuclidinol] | 2.6 nM | – | –
COCCOc1ccc(C#CC2(O)CN3CCC2CC3)c(Cc2ccccc2)n1 (stereo not drawn) [Example 12, 3-[2-Benzyl-6-(2-methoxyethyloxy)-3-pyridyl)ethynyl-3-quinuclidinol] | – | 78% | –
C[C@H](NC(=O)OC(C)(C)C)C(=O)OCCCOc1ccc(C#CC2(O)CN3CCC2CC3)c(Cc2ccccc2)n1 (stereo partly drawn) [Example 169, 3-[2-Benzyl-6-[3-[N-(tert-butoxycarbonyl)aranyloxy]propyl]oxy-3-pyridyl]ethynyl-3-quinuclidinol] | – | – | Cholesterol biosynthesis inhibitive activity inhibition (%) (cholesterol biosynthesis): 92%
O[C@]1(C#Cc2cc(Cl)c(N3CCC4(C3)OCCO4)nc2Cc2ccccc2)CN2CCC1CC2 [Example 119, (3R)-3-[2-Benzyl-5-chloro-6-(3,3-ethylenedioxypyrrolidine-1-yl)-3-pyridyl]ethynyl-3-quinuclidinol] | 3.9 nM | – | –
COCCOc1ccc(C#C[C@@]2(O)CN3CCC2CC3)c(Cc2ccccc2)n1 [Example 147, (3R)-3-[2-Benzyl-6-(2-methoxyethyl)oxy-3-pyridyl]ethynyl-3-quinuclidinol] | – | 87% | –
COCCOc1cc(Cc2ccccc2)c(C#CC2(O)CN3CCC2CC3)cn1 (stereo not drawn) [Example 6, 3-[4-Benzyl-2-(2-methoxyethoxy)-5-pyridyl]ethynyl-3-quinuclidinol] | – | 73% | –
COCCCNc1ccc(C#CC2(O)CN3CCC2CC3)c(Cc2ccccc2)n1 (stereo not drawn) [Example 11, 3-[2-Benzyl-6-(3-methoxypropylamino)-3-pyridyl)ethynyl-3-quinuclidinol] | – | 72% | –
CO[C@@H]1CN(c2ccc(C#C[C@@]3(O)CN4CCC3CC4)c(Cc3ccccc3)n2)C[C@H]1OC [Example 104, (3R)-3-[2-Benzyl-6-[(3R,4R)-3,4-dimethoxypyrrolidine-1-yl)-3-pyridyl]ethynyl-3-quinuclidinol] | 6.7 nM | – | inhibition in vivo at 2 mg/kg (cholesterol biosynthesis; 2 h, dose 2 mg/kg): 88%
COC(=O)CCC(=O)OCCCOc1ccc(C#CC2(O)CN3CCC2CC3)c(Cc2ccccc2)n1 (stereo not drawn) [Example 168, 3-[2-Benzyl-6-[3-(3-methoxycarbonylpropanoyloxy)propyl]oxy-3-pyridyl]ethynyl-3-quinclidinol] | – | – | Cholesterol biosynthesis inhibitive activity inhibition (%) (cholesterol biosynthesis): 89%
CO[C@@H]1CN(c2ccc(C#C[C@@]3(O)CN4CCC3CC4)c(Cc3ccccc3)n2)C(=O)[C@@H]1OC [Example 123, (3R)-3-[2-Benzyl-6-[(3R,4R)-3,4-dimethoxy-2-pyrrolidinone-1-yl]-3-pyridyl]ethynyl-3-quinuclidinol] | – | 86% | –
O[C@]1(C#Cc2cnc(-c3ccc4c(c3)OCO4)cc2Cc2ccccc2)CN2CCC1CC2 [Example 180, (3R)-3-[4-Benzyl-2-(3,4-methylenedioxyphenyl)-5-pyridyl]ethynyl-3-quinuclidinol] | 6.3 nM | – | –
OC1(C#Cc2cnc(-c3ccc4c(c3)OCO4)cc2Cc2ccccc2)CN2CCC1CC2 (stereo not drawn) [Example 1, 3-[4-Benzyl-2-(3,4-methylenedioxyphenyl)-5-pyridyl]ethynyl-3-quinuclidinol] | 10 nM | – | –
O=C1[C@H](O)CCN1c1ccc(C#C[C@@]2(O)CN3CCC2CC3)c(Cc2ccccc2)n1 [Example 142, (3R)-3-[2-Benzyl-6-[(3R)-3-hydroxy-2-pyrrolidinone-1-yl]-3-pyridyl]ethynyl-3-quinuclidinol] | 5 nM | 82% | –
